This note sets out measurements from ChEMBL document CHEMBL1821565, “I. Novel HCV NS5B polymerase inhibitors: discovery of indole 2-carboxylic acids with C3-heterocycles” (Bioorg Med Chem Lett, 2011).

Structures are written as SMILES.

For assay [1], the system named is Hepatitis C virus. As to the kind of experiment: Antiviral activity against HCV subtype 1b Con1 reduction in replicon RNA level using RT-PCR by cell based replicon assay. In kind it is functional, organism-based, Hepacivirus hominis.
Assay [2] is described as follows: Inhibition of HCV NS5B after 150 mins by [33P]-CTP incorporation assay. Also on record: species or system Hepacivirus hominis.
[3] abbreviates: Hepatitis C virus, Con1, read-out: EC50.

`O=C(O)c1c(-c2ccc(F)cc2F)c2cc(Cl)ccc2n1Cc1cccc(Cl)c1`: the EC50 in assay [1] (setting [3]) was above 25 µM. In assay [2], this molecule had an IC50 of 1.1 µM.
For the molecule `O=C(O)c1c(-c2cccnc2F)c2cc(Cl)ccc2n1Cc1ccc(F)cc1F`, in assay [1] (setting [3]), the EC50 was above 25 µM. In assay [2], this molecule showed an IC50 of 0.3 µM.
The corresponding values for `O=C(O)c1c(-n2ccccc2=O)c2cc(Cl)ccc2n1Cc1ccccc1F` are 19 µM and 0.15 µM.
The corresponding values for `O=C(O)c1c(-c2ccc[nH]c2=O)c2cc(Cl)ccc2n1Cc1ccc(F)cc1F` are 10 µM and 0.035 µM.
The corresponding values for `O=C(O)c1c(-c2c[nH]c(=O)[nH]c2=O)c2cc(Cl)ccc2n1Cc1ccc(F)cc1F` are 10 µM and 0.047 µM.
With `Nc1cc(Cn2c(C(=O)O)c(-c3ccc[nH]c3=O)c3cc(Cl)ccc32)ccn1`, in assay [1] (setting [3]), the EC50 was 4.8 µM. The molecule also came in with an IC50 in assay [2] of 0.053 µM.
The matching figures for `Nc1cc(Cn2c(C(=O)O)c(-c3c[nH]c(=O)[nH]c3=O)c3cc(Cl)ccc32)ccn1`: 2 µM and 0.031 µM.
As to `Nc1cc(Cn2c(C(=O)O)c(N3CCNS3(=O)=O)c3cc(Cl)ccc32)ccn1`, the EC50 entry in assay [1] is “Not Active”. Moreover, the half-inhibitory concentration (IC50) in assay [2] was above 20 µM.
The corresponding values for `Nc1cc(Cn2c(C(=O)O)c(N3CCCNS3(=O)=O)c3cc(Cl)ccc32)ccn1` are “Not Active” and above 20 µM.
As to `O=C(O)c1c(-c2ccc[nH]c2=O)c2cc(Br)ccc2n1Cc1ccc(F)cc1F`, the EC50 in assay [1] (setting [3]) worked out at 7.6 µM. Further, in assay [2], the 50% inhibitory concentration (IC50) stood at 0.043 µM.
The matching figures for `COc1ccc2c(c1)c(-c1ccc[nH]c1=O)c(C(=O)O)n2Cc1ccc(F)cc1F`: 11 µM and 0.043 µM.
The matching figures for `CCOc1ccc2c(c1)c(-c1ccc[nH]c1=O)c(C(=O)O)n2Cc1ccc(F)cc1F`: 20 µM and 0.12 µM.
The corresponding values for `O=C(O)c1c(-c2ccc[nH]c2=O)c2cc(C3CC3)ccc2n1Cc1ccc(F)cc1F` are above 50 µM and 0.56 µM.
Consider `Cc1ccc2c(c1)c(-c1ccc[nH]c1=O)c(C(=O)O)n2Cc1ccc(F)cc1F`, for which the IC50 in assay [2] was 0.046 µM.
For `O=C(O)c1c(-c2ccc[nH]c2=O)c2cc(C(F)(F)F)ccc2n1Cc1ccc(F)cc1F`, the EC50 in assay [1] (setting [3]) came out at 4.8 µM. The molecule also gave an IC50 in assay [2] of 0.025 µM.
The matching figures for `NC(=O)Nc1c(C(=O)O)n(Cc2cc(F)ccc2F)c2ccc(C(F)(F)F)cc12`: above 10 µM and 0.35 µM.
The corresponding values for `O=C(O)c1c(-n2c(=O)[nH]c3nccnc3c2=O)c2cc(C(F)(F)F)ccc2n1Cc1cc(F)ccc1F` are above 10 µM and 0.27 µM.
As for `O=C(O)c1c(-n2c(=O)[nH]c3cscc3c2=O)c2cc(C(F)(F)F)ccc2n1Cc1ccc(F)cc1F`, the EC50 in assay [1] (setting [3]) turned out to be 12 µM. For the same molecule, the IC50 in assay [2] is 0.059 µM.
The corresponding values for `Nc1cc(Cn2c(C(=O)O)c(-n3c(=O)[nH]c4cscc4c3=O)c3cc(C(F)(F)F)ccc32)ccn1` are 1.4 µM and 0.032 µM.
The corresponding values for `Nc1cc(Cn2c(C(=O)O)c(-c3ccc[nH]c3=O)c3cc(C(F)(F)F)ccc32)ccn1` are 0.3 µM and 0.017 µM.
For the molecule `O=C(O)c1c(-c2ccccc2F)c2cc(Cl)ccc2n1Cc1ccccc1`, the 50% effective concentration (EC50) in assay [1] (setting [3]) was above 100 µM.
As to `O=C(O)c1[nH]c2ccc(Cl)cc2c1-c1ccccc1F`, the concentration for a half-maximal effect (EC50) in assay [1] (setting [3]) is above 25 µM. Inhibition in assay [2] was half-maximal at 7.3 µM (IC50).
For the molecule `Cn1c(C(=O)O)c(-c2ccccc2F)c2cc(Cl)ccc21`, the EC50 in assay [1] (setting [3]) is above 25 µM. Moreover, inhibition in assay [2] was half-maximal at 1.3 µM (IC50).
The matching figures for `CC(=O)n1c(C(=O)O)c(-c2ccccc2F)c2cc(Cl)ccc21`: above 25 µM and 8.1 µM.
The corresponding values for `O=C(O)c1c(-c2ccccc2F)c2cc(Cl)ccc2n1C(=O)c1ccccc1` are above 25 µM and 7.8 µM.
The matching figures for `O=C(O)c1c(-c2ccccc2F)c2cc(Cl)ccc2n1Cc1ccc2ccccc2c1`: above 25 µM and 4.4 µM.
Turning to `Cc1cccc(Cn2c(C(=O)O)c(-c3ccccc3F)c3cc(Cl)ccc32)c1`, the EC50 in assay [1] (setting [3]) is above 25 µM. This molecule came in with an IC50 in assay [2] of 2.5 µM.
The corresponding values for `O=C(O)c1c(-c2ccccc2F)c2cc(Cl)ccc2n1Cc1cccc(C(F)(F)F)c1` are above 25 µM and above 44 µM.
In the case of `O=C(O)c1c(-c2ccccc2F)c2cc(Cl)ccc2n1Cc1cccc(OC(F)(F)F)c1`, in assay [1] (setting [3]), the EC50 is above 25 µM. The molecule further registered an IC50 in assay [2] of 1.8 µM.
The matching figures for `O=C(O)c1c(-c2ccccc2F)c2cc(Cl)ccc2n1Cc1cc(F)ccc1F`: above 25 µM and 0.3 µM.
`Nc1ccccc1Cn1c(C(=O)O)c(-c2ccccc2F)c2cc(Cl)ccc21`: the EC50 in assay [1] (setting [3]) is above 25 µM. In assay [2], the 50% inhibitory concentration (IC50) came out at 0.6 µM.
The matching figures for `Nc1cccc(Cn2c(C(=O)O)c(-c3ccccc3F)c3cc(Cl)ccc32)c1`: above 25 µM and 0.2 µM.
The corresponding values for `Cc1ccc(Cn2c(C(=O)O)c(-c3ccccc3F)c3cc(Cl)ccc32)cc1N` are above 25 µM and 1.3 µM.
For `CC(=O)Nc1cccc(Cn2c(C(=O)O)c(-c3ccccc3F)c3cc(Cl)ccc32)c1`, the EC50 in assay [1] (setting [3]) is above 25 µM. In assay [2], half-maximal inhibition (IC50) required 0.6 µM.
In the case of `O=C(O)c1c(-c2ccccc2F)c2cc(Cl)ccc2n1Cc1cccc(NCc2ccccc2)c1`, in assay [1] (setting [3]), the EC50 was above 25 µM. This molecule also yielded an IC50 in assay [2] of 0.7 µM.
With `O=C(O)c1c(-c2ccccc2F)c2cc(Cl)ccc2n1Cc1cccnc1`, the 50% effective concentration (EC50) in assay [1] (setting [3]) is above 25 µM. Besides, the IC50 in assay [2] came out at 1.3 µM.
The matching figures for `O=C(O)c1c(-c2ccccc2F)c2cc(Cl)ccc2n1Cc1ccncc1`: above 25 µM and 1.2 µM.
Turning to `O=C(O)c1cc2cc(Cl)ccc2n1Cc1ccccc1F`, in assay [1] (setting [3]), the EC50 is above 25 µM. This molecule registered a concentration for half-maximal inhibition (IC50) in assay [2] of 17 µM.
Consider `COc1ccccc1-c1c(C(=O)O)n(Cc2ccccc2F)c2ccc(Cl)cc12`, for which the EC50 in assay [1] (setting [3]) is above 25 µM. 10 µM corresponded to half-maximal inhibition in assay [2] (IC50).
Take `O=C(O)c1c(-c2ccccc2O)c2cc(Cl)ccc2n1Cc1cc(F)ccc1F`: the EC50 in assay [1] (setting [3]) was above 25 µM. This molecule gave an IC50 in assay [2] of 1.4 µM.
The corresponding values for `O=C(O)c1c(-c2ccccc2)c2cc(Cl)ccc2n1Cc1cccc(Cl)c1` are above 25 µM and 4.2 µM.
The corresponding values for `O=C(O)c1c(-c2cccc(Cl)c2)c2cc(Cl)ccc2n1Cc1cccc(Cl)c1` are above 25 µM and 33 µM.
The corresponding values for `N#Cc1cccc(-c2c(C(=O)O)n(Cc3cccc(Cl)c3)c3ccc(Cl)cc23)c1` are above 25 µM and 30 µM.
For the molecule `O=C(O)c1c(-c2ccc3c(c2)OCO3)c2cc(Cl)ccc2n1Cc1cccc(Cl)c1`, the EC50 in assay [1] (setting [3]) was above 25 µM. In addition, the IC50 in assay [2] is 29 µM.
In the case of `O=C(O)c1c(-c2ccc(F)cc2)c2cc(Cl)ccc2n1Cc1cccc(Cl)c1`, the EC50 in assay [1] (setting [3]) is above 25 µM. In addition, in assay [2], the IC50 was above 48 µM.
The corresponding values for `O=C(O)c1c(-c2ccc(F)c(F)c2)c2cc(Cl)ccc2n1Cc1cccc(Cl)c1` are above 25 µM and above 46 µM.
